Laboratory results reported in publication PMC6934184, “Selective DNA-PKcs inhibition extends the therapeutic index of localized radiotherapy and chemotherapy” (The Journal of Clinical Investigation, 2019).

Target: T1, ALK F1174L (Homo sapiens, UniProt Q9UM73, F1174L)
T1 construct: purchased Thermo Fisher Scientific (Life Technologies) SelectScreen
Assay: SelectScreen LanthaScreen
Assay type: binding
Settings: read-out: % displacement
Method in brief: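 NU5455 was profiled across the SelectScreen Broad panel of kinase activity and binding assays. Z'LYTE reactions such as CSF1R ran at apparent Km ATP, while the Adapta CAMK1 assay used ATP listed as 10. Values are given as percent.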

T1 sequence (Q9UM73 19-1620 F1174L): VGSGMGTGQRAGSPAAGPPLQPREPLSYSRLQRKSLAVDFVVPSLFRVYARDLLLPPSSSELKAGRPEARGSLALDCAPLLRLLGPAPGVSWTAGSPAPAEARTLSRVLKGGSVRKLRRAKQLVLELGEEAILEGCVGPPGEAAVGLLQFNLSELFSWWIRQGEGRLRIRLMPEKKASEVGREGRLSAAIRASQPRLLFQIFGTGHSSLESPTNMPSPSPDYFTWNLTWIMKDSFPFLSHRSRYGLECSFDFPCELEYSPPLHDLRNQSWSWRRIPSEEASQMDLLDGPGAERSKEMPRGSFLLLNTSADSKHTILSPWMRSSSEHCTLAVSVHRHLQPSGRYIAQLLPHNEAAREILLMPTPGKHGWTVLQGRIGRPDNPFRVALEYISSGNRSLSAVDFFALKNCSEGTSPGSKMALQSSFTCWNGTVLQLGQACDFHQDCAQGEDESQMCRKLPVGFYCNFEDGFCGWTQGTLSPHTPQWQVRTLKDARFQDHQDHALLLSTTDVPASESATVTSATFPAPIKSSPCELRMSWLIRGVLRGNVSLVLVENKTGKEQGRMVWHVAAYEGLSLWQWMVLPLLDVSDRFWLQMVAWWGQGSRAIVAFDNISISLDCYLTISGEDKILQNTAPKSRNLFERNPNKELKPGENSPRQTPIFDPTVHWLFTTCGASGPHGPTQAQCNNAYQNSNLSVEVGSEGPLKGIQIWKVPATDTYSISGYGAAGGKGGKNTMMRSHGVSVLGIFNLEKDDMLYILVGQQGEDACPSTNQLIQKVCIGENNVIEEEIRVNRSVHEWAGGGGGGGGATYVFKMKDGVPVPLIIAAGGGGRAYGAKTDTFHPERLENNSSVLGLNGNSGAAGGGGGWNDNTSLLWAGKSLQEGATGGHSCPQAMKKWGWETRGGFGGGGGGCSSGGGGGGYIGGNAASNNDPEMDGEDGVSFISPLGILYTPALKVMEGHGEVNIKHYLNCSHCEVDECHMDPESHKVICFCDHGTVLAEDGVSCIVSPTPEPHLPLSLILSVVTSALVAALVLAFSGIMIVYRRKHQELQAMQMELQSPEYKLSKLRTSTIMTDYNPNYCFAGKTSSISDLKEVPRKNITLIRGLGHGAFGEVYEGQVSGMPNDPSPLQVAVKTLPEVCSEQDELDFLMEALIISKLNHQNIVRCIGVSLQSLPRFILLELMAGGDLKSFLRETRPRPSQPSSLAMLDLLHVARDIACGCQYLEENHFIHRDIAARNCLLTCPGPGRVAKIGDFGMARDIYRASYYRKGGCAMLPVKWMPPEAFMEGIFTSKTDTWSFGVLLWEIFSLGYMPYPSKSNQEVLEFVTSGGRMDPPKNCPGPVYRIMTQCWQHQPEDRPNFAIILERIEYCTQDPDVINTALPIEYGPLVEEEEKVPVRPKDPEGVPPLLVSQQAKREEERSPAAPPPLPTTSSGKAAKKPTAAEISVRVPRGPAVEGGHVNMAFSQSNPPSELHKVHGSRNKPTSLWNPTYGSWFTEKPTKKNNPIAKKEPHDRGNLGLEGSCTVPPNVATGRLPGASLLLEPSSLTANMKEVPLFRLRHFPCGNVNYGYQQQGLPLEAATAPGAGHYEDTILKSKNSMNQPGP

In the case of `CN(C(=O)CN1CCOCC1)c1ccc2sc3c(-c4cccc5c(=O)cc(N6CC7CCC(C6)O7)oc45)cccc3c2c1` [NU5455], the inhibition at 1 µM is reported as 1.6%.
